In brackets after ≈: the same amount, converted by molar mass. Read-outs that look alike come from different tables or passages of the source.
Legend:
[1] = crystalline form of Patent Document 2; cited from earlier work
[2] = Stress stability evaluation, 60° C., 4 weeks, HPLC; type: physicochemical
[3] = Pharmacokinetic evaluation in beagle dogs; type: in vivo; conditions: 1 mg/kg, plasma
Experimental: A test was conducted to confirm whether the pharmacokinetic profiles of enavogliflozin/proline co-crystals were improved in beagle dogs. Each of the crystalline form A of enavogliflozin and the proline co-crystal was orally administered at a dose of 1 mg/kg to male beagle dogs by setting the crystalline form A of enavogliflozin as a control and the proline co-crystal as a comparative group, and blood collection was conducted before administration (0 hour), and for 0.083, 0.25, 0.5, 0.75, 1, 1.5, 2, 4, 6, 8, 12, and 24 hours (a total of 13 times). Blood drug concentrations were analyzed by LC-MS/MS using plasma separated from the collected samples, and pharmacokinetic parameters such as the maximum observed plasma concentration (Cmax), an area under the plasma concentration-time curve (AUClast and AUCinf), a time-to-maximum observed plasma concentration (Tmax), and a half-life (T1/2) were calculated and interpreted using the WinNonlin 5.0.1 program.

[4] = Solubility in artificial gastric fluid (FaSSGF); type: physicochemical; conditions: fassgf or other biorelevant, thermodynamic from solid
[5] = Solubility in artificial intestinal fluid (FaSSIF); type: physicochemical; conditions: thermodynamic from solid

Compound: OC[C@H]1O[C@@H](c2cc(Cc3ccc(C4CC4)cc3)c(Cl)c3c2CCO3)[C@H](O)[C@@H](O)[C@@H]1O [enavogliflozin]
- Solubility (water solubility) [1]: 0.25 mg/mL (≈ 559 µM)

Compound: OC[C@H]1O[C@@H](c2cc(Cc3ccc(C4CC4)cc3)c(Cl)c3c2CCO3)[C@H](O)[C@@H](O)[C@@H]1O [Enavogliflozin/proline co-crystal]
- Purity (HPLC) in stress stability evaluation ([2]; 2 weeks): 99.9%
- Purity (HPLC) in stress stability evaluation ([2]; 4 weeks): 99.8%
- Thermal stability compared with crystalline form of enavogliflozin ([2]; 4 weeks): equivalent to that of the crystalline form of enavogliflozin
- Purity (HPLC) in stress stability evaluation ([2]; Initial): 99.9%
- AUCinf ([3]; male beagle dogs, oral): 5341.58 ng·h/mL
- AUClast ([3]; male beagle dogs, oral): 4428.20 ng·h/mL
- Cmax ([3]; male beagle dogs, oral): 482.60 ng/mL
- T1/2 ([3]; male beagle dogs, oral): 6.10 h
- Tmax ([3]; male beagle dogs, oral): 5.20 h

Compound: OC[C@H]1O[C@@H](c2cc(Cc3ccc(C4CC4)cc3)c(Cl)c3c2CCO3)[C@H](O)[C@@H](O)[C@@H]1O [Crystalline form A of enavogliflozin, enavogliflozin]
- solubility at 30 min ([4]; 30 minutes): 310 µg/mL (≈ 694 µM)
- solubility at 1 h ([4]; 1 hour): 340 µg/mL (≈ 761 µM)
- solubility at 2 h ([4]; 2 hours): 350 µg/mL (≈ 783 µM)
- solubility at 4 h ([4]; 4 hours): 350 µg/mL (≈ 783 µM)
- solubility at 30 min ([5]; 30 minutes): 690 µg/mL (≈ 1540 µM)
- solubility at 1 h ([5]; 1 hour): 940 µg/mL (≈ 2100 µM)
- solubility at 2 h ([5]; 2 hours): 1000 µg/mL (≈ 2240 µM)
- solubility at 4 h ([5]; 4 hours): 920 µg/mL (≈ 2060 µM)
- solubility at 0 h ([5]; Initial): 10000 µg/mL (≈ 22400 µM)
- Purity (HPLC) in stress stability evaluation ([2]; 2 weeks, listed as Crystalline form of enavogliflozin): 98.8%
- Purity (HPLC) in stress stability evaluation ([2]; 4 weeks, listed as Crystalline form of enavogliflozin): 99.1%
- Purity (HPLC) in stress stability evaluation ([2]; Initial, listed as Crystalline form of enavogliflozin): 99.1%
- AUC(0-inf) ([3]; male, beagle, dog, po): 4640 ng·h/mL
- AUC(0-t) ([3]; male, beagle, dog, po): 4340 ng·h/mL
- half-life ([3]; male, beagle, dog, po): 319 min
- Cmax ([3]; male, beagle, dog, po, read-out: Cmax): 482 ng/mL
- Tmax ([3]; male, beagle, dog, po, read-out: Tmax): 4 h

From patent US20260022112A1, “NOVEL CO-CRYSTAL OF ENAVOGLIFLOZIN” (DAEWOONG PHARMACEUTICAL CO., LTD., priority 2022, published 2026)
